Measurements reported in patent publication US20250188057A1, “NON-AROMATIC CYCLIC-PYRIMIDINE ANALOGS AS GLUCOSYLCERAMIDE SYNTHASE INHIBITORS” (Merck Sharp & Dohme LLC, priority 2022, published 2025).
pIC50: −log10 of the molar value.

Target: glucosylceramide synthase (GCS) (Homo sapiens (Human), UniProt Q16739)
Experiment: UDP-Glo glucosylceramide synthase biochemical assay
Settings: endogenous GCS in Golgi preparations isolated from human A375 malignant melanoma skin cells; UDP detection by luminescence
Source text: A UDP-Glo™ glucosylceramide synthase biochemical assay was utilized to evaluate the effect of test compounds on the activity of endogenous levels of GCS enzyme contained within Golgi preparations isolated from human A375 malignant melanoma skin cells. The UDP-Glo™ glucosylceramide synthase assay uses UDP-Glucose as a nucleotide-glycosyl donor and ceramide as substrate acceptor molecules. In the reaction, glucosylceramide synthase (GCS) transfers glucose from UDP-Glucose to ceramide. Glucosylceramide and UDP are released as products.
Using Promega's UDP-Glo™ Glycosyltransferase assay kit (Promega Corporation, Madison, WI, USA (Promega)), GCS activity was indirectly measured by detecting the amount of UDP produced. An aliquot of GCS enzyme (1.5 μg crude golgi preparation, total protein) and titrated test compound were aliquoted to each well and incubated for 30 minutes at room temperature. […] An equivalent volume of substrate mixture was then added to each well. Following a 20 h incubation at room temperature to allow for GCS turnover of substrate, an equal volume of UDP detection reagent (Promega) was added to each well and incubated for an additional 75 minutes at room temperature to simultaneously convert the accumulated UDP product into ATP and generate light in a luciferase reaction. The generated light was detected using a luminometer. […] luminescence values (RLUs) were normalized to mean “min” and “max” effects, as determined on each plate. “Min” was defined as the mean of the values of the wells treated with vehicle (DMSO) and which represent 0% inhibition; “max” was defined as the mean of the values of the wells treated with a reference inhibitor and which represent the 100% effect. Values for % Emax and EC50 were determined by best-fitting the normalized data to a curve in Activity Base along a four-parameter logistic nonlinear regression (4PL) model (based on the Levenberg-Marquardt algorithm and defined by the equation below): […]
where: n is 4PMin (bottom of the curve); m is 4PMax (top of the curve); i is IP (inflection point of curve); and p is slope. See Levenberg, K., “A Method for the Solution of Certain Problems in Least Squares”, Quart. Appl. Math. 2, (1944), pp 164-168 and Marquardt, D., “An Algorithm for Least Squares Estimation on Nonlinear Parameters”, SIAM J. Appl. Math 11, (1963) pp 431-441.

Chain of glucosylceramide synthase (GCS) (Q16739 whole entry): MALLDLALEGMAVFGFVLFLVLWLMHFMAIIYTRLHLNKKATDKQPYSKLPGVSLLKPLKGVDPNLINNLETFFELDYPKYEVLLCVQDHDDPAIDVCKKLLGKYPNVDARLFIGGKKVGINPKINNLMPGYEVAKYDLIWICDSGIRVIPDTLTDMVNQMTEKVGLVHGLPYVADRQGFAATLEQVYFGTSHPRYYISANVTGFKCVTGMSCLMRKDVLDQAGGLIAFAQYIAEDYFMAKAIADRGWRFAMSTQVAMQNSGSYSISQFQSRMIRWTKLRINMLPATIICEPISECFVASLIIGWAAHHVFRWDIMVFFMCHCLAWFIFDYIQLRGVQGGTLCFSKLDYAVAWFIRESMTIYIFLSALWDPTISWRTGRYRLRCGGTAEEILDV

Compound	pIC50
OCc1cnc(C2CC2)nc1OC[C@H]1CN(c2ccc(C(F)(F)F)nc2)CCO1 [Compound 4, (R)-(2-cyclopropyl-4-((4-(6-(trifluoromethyl)pyridin-3-yl)morpholin-2-yl)methoxy)pyrimidin-5-yl)methanol]	5.86
OCc1cnc(C2CC2)nc1OC1CCN(c2ccc(C(F)(F)F)nc2)CC1 [Compound 6, (2-cyclopropyl-4-((1-(6-(trifluoromethyl)pyridin-3-yl)piperidin-4-yl)oxy)pyrimidin-5-yl)methanol]	5.84
N#Cc1cnc(C2CC2)nc1OC[C@H]1CCN(c2ccc(-n3cccn3)cc2)C1 [Compound 7, (S)-4-((1-(4-(1H-pyrazol-1-yl)phenyl)pyrrolidin-3-yl)methoxy)-2-cyclopropylpyrimidine-5-carbonitrile]	8.37
N#Cc1cnc(C2CC2)nc1OC[C@H]1CCN(c2cccc(-c3ncco3)c2)C1 [Compound 9, (S)-2-cyclopropyl-4-((1-(3-(oxazol-2-yl)phenyl)pyrrolidin-3-yl)methoxy)pyrimidine-5-carbonitrile]	6.08
N#Cc1cnc(C2CC2)nc1OC[C@H]1CCN(c2cccc(-c3nccs3)c2)C1 [Compound 10, (S)-2-cyclopropyl-4-((1-(3-(thiazol-2-yl)phenyl)pyrrolidin-3-yl)methoxy)pyrimidine-5-carbonitrile]	6.60
COc1cccc(N2CC[C@H](COc3nc(C4CC4)ncc3C#N)C2)n1 [Compound 12, (S)-2-cyclopropyl-4-((1-(6-methoxypyridin-2-yl)pyrrolidin-3-yl)methoxy)pyrimidine-5-carbonitrile]	6.28
Cc1nnc(-c2ccc(N3CC[C@H](COc4nc(C5CC5)ncc4C#N)C3)cc2)s1 [Compound 13, (S)-2-cyclopropyl-4-((1-(4-(5-methyl-1,3,4-thiadiazol-2-yl)phenyl)pyrrolidin-3-yl)methoxy)pyrimidine-5-carbonitrile]	7.10
N#Cc1cnc(C2CC2)nc1OC[C@H]1CCN(c2cccc(-n3nccn3)c2)C1 [Compound 20, (S)-4-((1-(3-(2H-1,2,3-triazol-2-yl)phenyl)pyrrolidin-3-yl)methoxy)-2-cyclopropylpyrimidine-5-carbonitrile]	6.45
N#Cc1cnc(C2CC2)nc1OC[C@H]1CCN(c2cnc3ccsc3c2)C1 [Compound 21, (S)-2-cyclopropyl-4-((1-(thieno[3,2-b]pyridin-6-yl)pyrrolidin-3-yl)methoxy)pyrimidine-5-carbonitrile]	5.88
N#Cc1cnc(C2CC2)nc1OC[C@H]1CCN(c2ccc(-c3cnco3)cc2)C1 [Compound 22, (S)-2-cyclopropyl-4-((1-(4-(oxazol-5-yl)phenyl)pyrrolidin-3-yl)methoxy)pyrimidine-5-carbonitrile]	7.59
N#Cc1cnc(C2CC2)nc1OC[C@H]1CCN(c2ccnc(C3CCC3)c2)C1 [Compound 27, (S)-4-((1-(2-cyclobutylpyridin-4-yl)pyrrolidin-3-yl)methoxy)-2-cyclopropylpyrimidine-5-carbonitrile]	5.44
COc1ccc(C)nc1N1CC[C@H](COc2nc(C3CC3)ncc2C#N)C1 [Compound 28, (S)-2-cyclopropyl-4-((1-(3-methoxy-6-methylpyridin-2-yl)pyrrolidin-3-yl)methoxy)pyrimidine-5-carbonitrile]	5.35
Cc1cc(N2CC[C@H](COc3nc(C4CC4)ncc3C#N)C2)ncc1F [Compound 30, (S)-2-cyclopropyl-4-((1-(5-fluoro-4-methylpyridin-2-yl)pyrrolidin-3-yl)methoxy)pyrimidine-5-carbonitrile]	5.91

Now from value to molecule:

pIC50	Compound
6.58	Cc1nc2c(s1)CCCC2Nc1nc(C2CC2)nc(Cl)c1CO (single isomer, unassigned) [Compound 110, (4-chloro-2-cyclopropyl-6-((2-methyl-4,5,6,7-tetrahydrobenzo[d]thiazol-4-yl)amino)pyrimidin-5-yl)methanol]
6.24	OCc1cnc(C2CC2)nc1OC[C@H]1CCN(c2ccc(C(F)(F)F)nc2)C1 [Compound 1, (S)-(2-cyclopropyl-4-((1-(6-(trifluoromethyl)pyridin-3-yl)pyrrolidin-3-yl)methoxy)pyrimidin-5-yl)methanol]
6.25	OCc1cnc(C2CC2)nc1OC[C@@H]1CCN(c2ccc(C(F)(F)F)nc2)C1 [Compound 2, (R)-(2-cyclopropyl-4-((1-(6-(trifluoromethyl)pyridin-3-yl)pyrrolidin-3-yl)methoxy)pyrimidin-5-yl)methanol]
5.63	OCc1cnc(C2CC2)nc1OC[C@@H]1CN(c2ccc(C(F)(F)F)nc2)CCO1 [Compound 3, (S)-(2-cyclopropyl-4-((4-(6-(trifluoromethyl)pyridin-3-y)morpholin-2-yl)methoxy)pyrimidin-5-yl)methanol]
5.47	OCc1cnc(C2CC2)nc1OCC1CCN(c2ccc(C(F)(F)F)nc2)CC1 [Compound 5, (2-cyclopropyl-4-((1-(6-(trifluoromethyl)pyridin-3-yl)piperidin-4-yl)methoxy)pyrimidin-5-yl)methanol]
6.05	N#Cc1cnc(C2CC2)nc1OC[C@H]1CCN(c2cnc(-c3ccccc3)o2)C1 [Compound 8, (S)-2-cyclopropyl-4-((1-(2-phenyloxazol-5-yl)pyrrolidin-3-yl)methoxy)pyrimidine-5-carbonitrile]
7.46	N#Cc1cnc(C2CC2)nc1OC[C@H]1CCN(c2ccc(-c3ncco3)cc2)C1 [Compound 11, (S)-2-cyclopropyl-4-((1-(4-(oxazol-2-yl)phenyl)pyrrolidin-3-yl)methoxy)pyrimidine-5-carbonitrile]
6.85	N#Cc1cnc(C2CC2)nc1OC[C@H]1CCN(c2sccc2C#N)C1 [Compound 14]
6.09	Cc1nccc(-c2cccc(N3CC[C@H](COc4nc(C5CC5)ncc4C#N)C3)c2)n1 [Compound 15, (S)-2-cyclopropyl-4-((1-(3-(2-methylpyrimidin-4-yl)phenyl)pyrrolidin-3-yl)methoxy)pyrimidine-5-carbonitrile]
6.45	N#Cc1cnc(C2CC2)nc1OC[C@H]1CCN(c2cccc(-n3cccn3)c2)C1 [Compound 16, (S)-4-((1-(3-(1H-pyrazol-1-yl)phenyl)pyrrolidin-3-yl)methoxy)-2-cyclopropylpyrimidine-5-carbonitrile]
5.99	Cc1cnc(N2CC[C@H](COc3nc(C4CC4)ncc3C#N)C2)c(C)c1 [Compound 17, (S)-2-cyclopropyl-4-((1-(3,5-dimethylpyridin-2-yl)pyrrolidin-3-yl)methoxy)pyrimidine-5-carbonitrile]
7.17	N#Cc1cnc(C2CC2)nc1OC[C@H]1CCN(c2ccc(-c3ccno3)cc2)C1 [Compound 18, (S)-2-cyclopropyl-4-((1-(4-(isoxazol-5-yl)phenyl)pyrrolidin-3-yl)methoxy)pyrimidine-5-carbonitrile]
7.43	N#Cc1cnc(C2CC2)nc1OC[C@H]1CCN(c2ccc(-c3ccon3)cc2)C1 [Compound 19, (S)-2-cyclopropyl-4-((1-(4-(isoxazol-3-yl)phenyl)pyrrolidin-3-yl)methoxy)pyrimidine-5-carbonitrile]
5.44	N#Cc1cnc(C2CC2)nc1OC[C@H]1CCN(c2nnc(C3CC3)s2)C1 [Compound 23, (S)-2-cyclopropyl-4-((1-(5-cyclopropyl-1,3,4-thiadiazol-2-yl)pyrrolidin-3-yl)methoxy)pyrimidine-5-carbonitrile]
6.42	N#Cc1cnc(C2CC2)nc1OC[C@H]1CCN(c2ccc(C3CC3)nc2)C1 [Compound 24, (S)-2-cyclopropyl-4-((1-(6-cyclopropylpyridin-3-yl)pyrrolidin-3-yl)methoxy)pyrimidine-5-carbonitrile]
6.64	CCOc1ccc(N2CC[C@H](COc3nc(C4CC4)ncc3C#N)C2)cn1 [Compound 25, (S)-2-cyclopropyl-4-((1-(6-ethoxypyridin-3-yl)pyrrolidin-3-yl)methoxy)pyrimidine-5-carbonitrile]
5.33	N#Cc1cnc(C2CC2)nc1OC[C@H]1CCN(c2ncccc2C(F)F)C1 [Compound 26, (S)-2-cyclopropyl-4-((1-(3-(difluoromethyl)pyridin-2-yl)pyrrolidin-3-yl)methoxy)pyrimidine-5-carbonitrile]
6.83	N#Cc1cnc(C2CC2)nc1OC[C@H]1CCN(c2ccc(OC(F)F)cn2)C1 [Compound 29, (S)-2-cyclopropyl-4-((1-(5-(difluoromethoxy)pyridin-2-yl)pyrrolidin-3-yl)methoxy)pyrimidine-5-carbonitrile]
7.55	N#Cc1cnc(C2CC2)nc1OC[C@H]1CCN(c2ccc(-n3ccnc3)cc2)C1 [Compound 31, (S)-4-((1-(4-(1H-imidazol-1-yl)phenyl)pyrrolidin-3-yl)methoxy)-2-cyclopropylpyrimidine-5-carbonitrile]
